Consider two molecules from US20250032425A1, “FIRST IN CLASS USE OF ESTROGEN RECEPTOR BETA AGONISTS IN TREATING ANGELMAN SYNDROME AND RELEVANT AUTISM SPECTRUM DISORDERS” (BROWN UNIVERSITY, priority 2023, published 2025).

The test system of this experiment is untreated iOPCs. The experiment in a line: Baseline Ki67 expression in untreated iOPCs (normal UBE3A levels). Conditions: 10 μM, 24 hours. In kind it is cell-based, human. The text has this:
FIG. 19A: Schematic illustrating the process of generating iPSC-derived oligodendrocyte lineage cells using a refined protocol from Vulakh and Yang, […] (Vulakh, G., and Yang, X. (2023). Characterizing the Neuron-Glial Interactions by the Co-cultures of Human iPSC-Derived Oligodendroglia and Neurons. Methods Mol. Biol. 2683. 10.1007/978-1-0716-3287-1_9). The human iPSCs employed in this study were the extensively characterized KOLF2.J1 control reference line, sourced from the INDI (Ramos, D. M., Skarnes, W. C., Singleton, A. B., Cookson, M. R., and Ward, M. E. (2021). Tackling neurodegenerative diseases with genomic engineering: A new stem cell initiative from the NIH. Neuron 109, 1080-1083. 10.1016/j.neuron.2021.03.022). Initially, iPSCs are converted into neural precursor cells (iNPCs, marked by Nestin) through SMAD inhibition in the first week. These iNPCs are then induced into oligodendrocyte precursor cells (iOPCs, marked by PDGFRa and A2B5) by the second week. […] FIG. 19H: Baseline effects of AC-186 on OPC proliferation analyzed by Ki67 expression in untreated iOPCs exposed to vehicle or drugs (AC-186 or DPN; 10 μM, 24 hours), with densitometric signals of immunoblotting normalized to GAPDH. […]

Molecules are shown by their SMILES. “Also recorded” adds a separate entry of the source.

`Oc1ccc(C2(c3ccccc3F)CCC(F)(F)CC2)cc1` [AC-186]: the “Ki67 expression, baseline” value is given as “neither AC-186 nor DPN affected; also recorded: No significant changes”.

In the case of `N#CC(Cc1ccc(O)cc1)c1ccc(O)cc1` (centres unmarked) [DPN, diarylpropionitrile, reference compound], the “Ki67 expression, baseline” value is given as “neither AC-186 nor DPN affected; also recorded: No significant changes”.
